ChEMBL document CHEMBL4602647, “Protective effects of 10,11-dihydro-5H-dibenzo[b,f]azepine hydroxamates on vascular cognitive impairment” (Eur J Med Chem, 2020)
Calls of active or inactive are those of the source. No cut-off for these calls is given here.

What was measured:
Mus musculus [1] = test: Upregulation of acetylated H4K5 protein expression in hippocampus of bilateral common carotid artery occlusion-induced vascular dementia C57BL/6J mouse model at 25 mg/kg, ip measured after 3 months by Western blot analysis; type: functional, organism-based
[2] = biological target: Histone deacetylase 3/Nuclear receptor corepressor 2 (HDAC3/NCoR2) (Homo sapiens, UniProt O15379); test: biochemical; type: cell-based
Histone deacetylase 3/Nuclear receptor corepressor 2 (HDAC3/NCoR2), sequence (O15379 whole entry): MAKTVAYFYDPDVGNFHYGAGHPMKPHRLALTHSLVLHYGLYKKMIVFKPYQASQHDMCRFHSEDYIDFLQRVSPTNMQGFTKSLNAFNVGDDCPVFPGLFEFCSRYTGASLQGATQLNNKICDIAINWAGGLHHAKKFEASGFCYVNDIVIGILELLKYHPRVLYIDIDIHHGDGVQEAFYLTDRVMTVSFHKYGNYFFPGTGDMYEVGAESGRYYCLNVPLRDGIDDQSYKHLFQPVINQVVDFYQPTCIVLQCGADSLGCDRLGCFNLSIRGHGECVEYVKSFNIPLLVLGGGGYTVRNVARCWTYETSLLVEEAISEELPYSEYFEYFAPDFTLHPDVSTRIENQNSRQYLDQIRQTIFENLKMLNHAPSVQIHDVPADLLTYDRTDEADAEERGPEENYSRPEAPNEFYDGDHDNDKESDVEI
Histone deacetylase 3/Nuclear receptor corepressor 2 (HDAC3/NCoR2), sequence (Q9Y618 whole entry, further chain): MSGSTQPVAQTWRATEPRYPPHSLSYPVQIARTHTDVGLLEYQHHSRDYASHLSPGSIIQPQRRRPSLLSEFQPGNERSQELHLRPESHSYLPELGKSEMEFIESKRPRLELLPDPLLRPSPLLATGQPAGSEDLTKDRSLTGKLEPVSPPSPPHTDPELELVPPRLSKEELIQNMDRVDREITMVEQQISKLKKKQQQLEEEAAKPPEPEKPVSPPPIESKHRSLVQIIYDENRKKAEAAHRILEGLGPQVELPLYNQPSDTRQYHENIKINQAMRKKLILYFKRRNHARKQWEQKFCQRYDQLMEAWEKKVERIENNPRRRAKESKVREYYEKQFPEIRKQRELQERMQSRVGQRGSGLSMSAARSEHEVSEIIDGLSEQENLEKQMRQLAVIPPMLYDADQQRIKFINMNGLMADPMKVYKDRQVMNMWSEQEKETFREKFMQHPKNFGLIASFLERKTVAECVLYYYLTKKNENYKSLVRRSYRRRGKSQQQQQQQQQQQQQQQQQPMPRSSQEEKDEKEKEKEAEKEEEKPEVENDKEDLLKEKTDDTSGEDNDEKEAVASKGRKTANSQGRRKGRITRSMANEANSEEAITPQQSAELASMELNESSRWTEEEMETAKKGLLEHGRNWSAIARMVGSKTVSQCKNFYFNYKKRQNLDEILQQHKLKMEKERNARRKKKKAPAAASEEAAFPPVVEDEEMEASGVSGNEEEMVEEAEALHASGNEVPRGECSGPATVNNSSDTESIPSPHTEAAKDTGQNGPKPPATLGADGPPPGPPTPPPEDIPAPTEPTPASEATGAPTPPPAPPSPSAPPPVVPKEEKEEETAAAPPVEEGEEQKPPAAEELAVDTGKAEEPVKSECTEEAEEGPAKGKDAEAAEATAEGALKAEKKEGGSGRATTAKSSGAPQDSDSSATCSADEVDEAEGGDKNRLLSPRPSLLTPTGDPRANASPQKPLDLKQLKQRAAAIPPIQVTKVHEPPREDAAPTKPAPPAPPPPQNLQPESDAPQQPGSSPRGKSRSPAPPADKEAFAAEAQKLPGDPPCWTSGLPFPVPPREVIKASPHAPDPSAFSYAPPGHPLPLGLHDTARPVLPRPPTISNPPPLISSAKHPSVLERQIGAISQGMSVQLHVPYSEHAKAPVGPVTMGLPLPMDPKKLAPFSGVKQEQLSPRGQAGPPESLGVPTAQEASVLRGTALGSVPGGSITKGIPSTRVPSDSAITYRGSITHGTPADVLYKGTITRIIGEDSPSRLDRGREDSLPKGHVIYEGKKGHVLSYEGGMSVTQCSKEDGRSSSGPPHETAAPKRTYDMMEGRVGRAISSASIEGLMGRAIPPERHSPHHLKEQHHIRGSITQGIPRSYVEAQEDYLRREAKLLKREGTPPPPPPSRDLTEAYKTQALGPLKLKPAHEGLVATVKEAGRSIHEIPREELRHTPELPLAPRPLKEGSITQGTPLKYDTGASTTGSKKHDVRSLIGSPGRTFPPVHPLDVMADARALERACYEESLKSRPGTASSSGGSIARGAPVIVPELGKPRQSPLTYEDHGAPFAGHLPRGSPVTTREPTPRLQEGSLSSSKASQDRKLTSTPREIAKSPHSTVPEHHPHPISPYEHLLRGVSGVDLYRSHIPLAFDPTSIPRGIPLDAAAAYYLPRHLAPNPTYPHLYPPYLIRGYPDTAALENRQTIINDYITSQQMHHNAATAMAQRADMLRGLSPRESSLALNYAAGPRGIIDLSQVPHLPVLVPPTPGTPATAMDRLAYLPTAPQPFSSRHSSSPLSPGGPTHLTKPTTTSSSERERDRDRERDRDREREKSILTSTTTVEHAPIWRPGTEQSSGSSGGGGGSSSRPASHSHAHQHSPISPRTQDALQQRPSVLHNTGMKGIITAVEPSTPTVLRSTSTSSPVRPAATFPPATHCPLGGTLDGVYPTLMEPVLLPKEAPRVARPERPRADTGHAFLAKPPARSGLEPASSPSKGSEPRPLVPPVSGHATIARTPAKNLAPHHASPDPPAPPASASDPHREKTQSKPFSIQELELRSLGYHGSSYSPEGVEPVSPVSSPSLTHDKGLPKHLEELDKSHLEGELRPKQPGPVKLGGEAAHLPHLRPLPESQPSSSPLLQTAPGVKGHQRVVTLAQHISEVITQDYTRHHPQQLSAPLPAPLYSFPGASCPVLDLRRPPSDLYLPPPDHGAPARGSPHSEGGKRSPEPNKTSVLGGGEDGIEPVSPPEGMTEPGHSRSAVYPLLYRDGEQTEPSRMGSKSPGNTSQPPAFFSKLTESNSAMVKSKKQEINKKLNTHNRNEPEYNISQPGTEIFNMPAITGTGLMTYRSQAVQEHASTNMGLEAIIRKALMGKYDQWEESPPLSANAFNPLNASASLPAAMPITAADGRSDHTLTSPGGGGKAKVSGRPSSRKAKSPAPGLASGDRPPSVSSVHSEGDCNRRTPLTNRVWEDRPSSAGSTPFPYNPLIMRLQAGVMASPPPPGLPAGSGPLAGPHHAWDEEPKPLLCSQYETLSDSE

Mus musculus [3] = test: (§1) Anti-vascular cognitive impairment activity against bilateral common carotid artery occlusion-induced vascular dementia C57BL/6J mouse model assessed as reversal of hippocampal atrophy by measuring increase in ratio of size of hippocampus to lateral ventricle at 25 mg/kg, ip administered post surgery measured after 3 months by 7T-MRI analysis; type: functional, organism-based
Mus musculus [4] = test: Anti-vascular cognitive impairment activity against bilateral common carotid artery occlusion-induced vascular dementia C57BL/6J mouse model assessed as improvement in short-term non-spatial working memory by measuring increase in novel object recognition at 25 mg/kg, ip administered post surgery measured after 1 to 3 months by novel object recognition test; type: functional, organism-based
[5] = biological target: T1, Protein deacetylase HDAC6 (Homo sapiens, UniProt Q9UBN7); test: Inhibition of recombinant human N-terminal GST-tagged HDAC6 (1 to 1215 residues) expressed in baculovirus infected insect cells using RHK-K(Ac)-AMC as substrate after 90 mins by fluorimetry analysis
T1 sequence (Q9UBN7 whole entry): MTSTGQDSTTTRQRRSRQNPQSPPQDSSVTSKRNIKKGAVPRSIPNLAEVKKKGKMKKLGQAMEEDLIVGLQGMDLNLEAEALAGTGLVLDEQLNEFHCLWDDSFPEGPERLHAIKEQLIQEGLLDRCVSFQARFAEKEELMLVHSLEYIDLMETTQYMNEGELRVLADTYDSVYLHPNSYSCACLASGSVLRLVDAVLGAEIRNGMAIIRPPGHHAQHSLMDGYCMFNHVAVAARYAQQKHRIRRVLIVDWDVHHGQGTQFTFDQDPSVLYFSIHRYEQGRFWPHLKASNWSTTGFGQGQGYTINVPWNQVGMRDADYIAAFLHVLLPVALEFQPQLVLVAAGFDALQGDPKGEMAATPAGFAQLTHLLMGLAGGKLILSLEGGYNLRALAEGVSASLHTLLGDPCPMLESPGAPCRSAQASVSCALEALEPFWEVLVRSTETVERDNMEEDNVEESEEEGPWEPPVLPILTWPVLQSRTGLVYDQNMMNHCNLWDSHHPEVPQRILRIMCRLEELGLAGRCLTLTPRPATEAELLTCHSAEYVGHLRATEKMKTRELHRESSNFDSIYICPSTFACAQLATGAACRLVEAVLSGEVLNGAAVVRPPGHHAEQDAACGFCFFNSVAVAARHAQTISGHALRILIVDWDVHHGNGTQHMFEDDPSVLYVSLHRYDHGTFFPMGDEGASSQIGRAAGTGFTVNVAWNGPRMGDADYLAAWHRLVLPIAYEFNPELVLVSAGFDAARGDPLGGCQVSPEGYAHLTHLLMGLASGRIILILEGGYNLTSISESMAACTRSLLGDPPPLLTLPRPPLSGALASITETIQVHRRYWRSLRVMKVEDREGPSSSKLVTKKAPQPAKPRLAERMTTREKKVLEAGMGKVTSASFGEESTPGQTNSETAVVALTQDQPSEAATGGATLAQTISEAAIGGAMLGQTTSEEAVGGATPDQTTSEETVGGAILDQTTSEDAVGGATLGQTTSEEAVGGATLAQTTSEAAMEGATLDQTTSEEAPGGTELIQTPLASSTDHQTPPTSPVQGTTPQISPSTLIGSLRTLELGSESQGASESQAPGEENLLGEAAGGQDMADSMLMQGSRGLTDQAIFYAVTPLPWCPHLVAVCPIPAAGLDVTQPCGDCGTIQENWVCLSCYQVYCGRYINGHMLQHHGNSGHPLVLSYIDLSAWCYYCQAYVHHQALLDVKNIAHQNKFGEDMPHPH

[6] = Microsomal stability in human liver microsomes assessed as parent compound remaining measured after 30 mins; type: ADME, Microsome; conditions: read-out: Stability
[7] = Oral bioavailability in Sprague-Dawley rat at 10 mg/kg measured up to 24 hrs; type: ADME, organism-based; conditions: in vivo
Mus musculus [8] = test: as §1, with “hippocampal volume” for “ratio of size of hippocampus to lateral ventricle”; type: functional, organism-based
[9] = Half life in Sprague-Dawley rat at 10 mg/kg, po measured up to 24 hrs; type: ADME, organism-based; conditions: in vivo
[10] = Half life in Sprague-Dawley rat at 2 mg/kg, iv measured up to 24 hrs; type: ADME, organism-based; conditions: in vivo
Mus musculus [11] = test: (§2) Anti-vascular cognitive impairment activity against bilateral common carotid artery occlusion-induced vascular dementia C57BL/6J mouse model assessed as ratio of cerebral blood flow in right parietal area at 25 mg/kg, ip administered post surgery measured after 3 months (reference value: 0.761 +/- 0.037); type: functional
Mus musculus [12] = test: Upregulation of acetylated H3K14 protein expression in hippocampus of bilateral common carotid artery occlusion-induced vascular dementia C57BL/6J mouse model at 25 mg/kg, ip measured after 3 months by Western blot analysis; type: functional, organism-based
[13] = Cmax in Sprague-Dawley rat at 10 mg/kg, po measured up to 24 hrs; type: ADME, organism-based; parameters: dose 10 mg/kg, route oral; conditions: in vivo
Histone deacetylase 5 = Histone deacetylase 5 (Homo sapiens, UniProt Q9UQL6); test: Inhibition of recombinant human C-terminal His-tagged HDAC5 (657 to 1123 residues) expressed in baculovirus infected insect cells using Boc-K(Ac)-AMC as substrate after 60 mins by fluorimetry analysis
Histone deacetylase 5, sequence (Q9UQL6 whole entry, the tested form may be a part): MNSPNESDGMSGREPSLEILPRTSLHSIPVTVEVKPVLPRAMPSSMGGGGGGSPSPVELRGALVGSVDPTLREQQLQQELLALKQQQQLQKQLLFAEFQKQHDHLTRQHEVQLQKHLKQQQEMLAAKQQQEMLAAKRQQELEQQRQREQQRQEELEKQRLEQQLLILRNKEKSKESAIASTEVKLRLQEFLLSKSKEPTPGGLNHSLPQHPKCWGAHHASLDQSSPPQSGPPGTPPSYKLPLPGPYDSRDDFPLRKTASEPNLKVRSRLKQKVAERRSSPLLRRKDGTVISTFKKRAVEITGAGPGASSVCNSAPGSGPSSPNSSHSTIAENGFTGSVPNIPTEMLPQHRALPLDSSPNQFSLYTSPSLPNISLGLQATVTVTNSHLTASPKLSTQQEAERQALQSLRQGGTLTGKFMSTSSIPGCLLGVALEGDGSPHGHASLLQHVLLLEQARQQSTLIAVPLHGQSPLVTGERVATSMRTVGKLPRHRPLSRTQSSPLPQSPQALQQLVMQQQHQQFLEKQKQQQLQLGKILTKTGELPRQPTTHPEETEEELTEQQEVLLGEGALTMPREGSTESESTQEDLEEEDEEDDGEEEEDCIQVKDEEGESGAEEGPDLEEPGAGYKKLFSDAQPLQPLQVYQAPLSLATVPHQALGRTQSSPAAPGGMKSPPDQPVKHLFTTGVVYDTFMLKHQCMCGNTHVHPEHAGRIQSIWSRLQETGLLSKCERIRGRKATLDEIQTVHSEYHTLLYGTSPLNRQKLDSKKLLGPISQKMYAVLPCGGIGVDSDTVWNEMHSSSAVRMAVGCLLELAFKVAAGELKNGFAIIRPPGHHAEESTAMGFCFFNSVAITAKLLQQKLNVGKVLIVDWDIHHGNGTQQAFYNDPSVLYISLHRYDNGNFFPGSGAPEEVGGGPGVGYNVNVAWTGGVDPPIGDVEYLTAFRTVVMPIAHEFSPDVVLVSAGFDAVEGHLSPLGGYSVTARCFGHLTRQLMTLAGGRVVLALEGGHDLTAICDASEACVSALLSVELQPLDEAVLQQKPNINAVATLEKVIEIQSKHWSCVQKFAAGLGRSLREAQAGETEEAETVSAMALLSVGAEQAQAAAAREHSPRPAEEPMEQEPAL

Mus musculus [14] = test: as §2, with “left” for “right”, “months(reference” for “months (reference”, “0.792” for “0.761”, “0.029)” for “0.037)”; type: functional

- IC50 [2]: 2860 nM
- IC50 [5]: 1270 nM
- remaining at 0.5 h [6]: 81.5%
- bioavailability [7]: 1.8%
- half-life [9]: 10.9 h
- half-life [10]: 17.2 h
- Cmax [13]: 8.9 ng/mL
- IC50 (Histone deacetylase 5): 6270 nM
SMILES: O=C(/C=C/c1ccc(CNCCCN2c3ccccc3CCc3ccc(Cl)cc32)cc1)NO
- Activity (Mus musculus [1]): Active
- Activity (Mus musculus [3]): Active
- Activity (Mus musculus [4]): Active
- Activity (Mus musculus [8]): Active
- Ratio (Mus musculus [11]): 0.923
- Activity (Mus musculus [12]): Active
- Ratio (Mus musculus [14]): 0.896
